Reference: US6737383B1, “Herbicidal oxadiazolidines” (priority 1999, dated 2004)

Columns and labels:
soybean = assay: Test B pre/postemergence soybean; type: in vivo, Glycine max
In short: (§1)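 Herbicidal effect was estimated by eye on a ten-point control scale after plants spent twelve to sixteen days in a greenhouse following soil or foliar treatment. Foliar sprays targeted plants at one to four leaves; all doses were formulated in a non-phytotoxic solvent with surfactant.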

crabgrass = assay: Test B pre/postemergence crabgrass; type: in vivo, Digitaria sanguinalis
In short: as §1

rape = assay: Test B pre/postemergence rape; type: in vivo, Brassica napus
In short: as §1

surinam grass = assay: Test B pre/postemergence surinam grass; type: in vivo, Brachiaria decumbens
In short: as §1

morningglory = assay: Test B pre/postemergence morningglory; type: in vivo, Ipomoea hederacea
In short: as §1

purple nutsedge = assay: Test B pre/postemergence purple nutsedge; type: in vivo, Cyperus rotundus
In short: as §1

sugar beet = assay: Test B pre/postemergence sugar beet; type: in vivo, Beta vulgaris
In short: as §1

wild oat = assay: Test B pre/postemergence wild oat; type: in vivo, Avena fatua
In short: as §1

wheat = assay: Test B pre/postemergence wheat; type: in vivo, Triticum aestivum
In short: as §1

pigweed = assay: Test B pre/postemergence pigweed; type: in vivo, Amaranthus retroflexus
In short: as §1

rice = assay: Test B flood test rice; type: in vivo, Oryza sativa
In short: (§2)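 Flood test on plants grown to the 2-leaf stage; treated plants kept in greenhouse twelve to sixteen days, then visually rated against controls on a 0 (no effect) to 10 (complete control) scale.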

duck salad = assay: Test B flood test duck salad; type: in vivo, Heteranthera limosa
In short: as §2

giant foxtail = assay: Test B pre/postemergence giant foxtail; type: in vivo, Setaria faberii
In short: as §1

cocklebur = assay: Test B pre/postemergence cocklebur; type: in vivo, Xanthium strumarium
In short: as §1

corn = assay: Test B pre/postemergence corn; type: in vivo, Zea mays
In short: as §1

bamyardgrass = assay: Test B flood test barnyardgrass; type: in vivo, Echinochloa crus-galli
In short: as §2

blackgrass = assay: Test B pre/postemergence blackgrass; type: in vivo, Alopecurus myosuroides
In short: as §1

smallflower flatsedge = assay: Test B flood test smallflower flatsedge; type: in vivo, Cyperus difformis
In short: as §2

velvetleaf = assay: Test B pre/postemergence velvetleaf; type: in vivo, Abutilon theophrasti
In short: as §1

[1] = Postemergence, Rate 125 g/ha, scale of 0 to 10 where 0 is no effect and 10 is complete control
[2] = Postemergence, Rate 250 g/ha, scale of 0 to 10, 0 is no effect, 10 is complete control
[3] = Postemergence, Rate 500 g/ha, scale of 0 to 10 where 0 is no effect and 10 is complete control
[4] = Preemergence, Rate 62 g/ha, scale 0 to 10 (0 no effect, 10 complete control)
[5] = Preemergence, Rate 125 g/ha, scale of 0 to 10 where 0 is no effect and 10 is complete control
[6] = Preemergence, Rate 500 g/ha, scale of 0 to 10 where 0 is no effect and 10 is complete control
[7] = Postemergence, Rate 62 g/ha, scale of 0 to 10, 0 is no effect, 10 is complete control
[8] = Rate 62 g/ha, flood test species, Pre-emergence, visual evaluation after twelve to sixteen days
[9] = Rate 125 g/ha, under heading Pre-emergence, flood test species, visual evaluation after twelve to sixteen days
[10] = Rate 500 g/ha, Pre-emergence section of Table B, 0 to 10 scale (0 no effect, 10 complete control)

For `CCc1nc(C)c(C(C)n2c(=O)on(C(=O)N(c3ccc(F)cc3F)C(C)C)c2=O)s1` (stereo not shown) [Compound 589], the “Plant response rating, Soybean” value (soybean; [1]) was 3, the “Soybean plant response rating” value (soybean; [2]) was 3 and the “Plant response rating, Soybean” value (soybean; [3]) was 3. The “Soybean plant response rating” value (soybean; [4]) was 0, the “Soybean plant response rating” value (soybean; [5]) was 0 and the “Soybean plant response rating” value (soybean; [6]) was 0. The “Crabgrass plant response rating” value (crabgrass; [7]) was 0, the “Plant response rating, Crabgrass” value (crabgrass; [1]) was 0 and the “Crabgrass plant response rating” value (crabgrass; [2]) was 1. The “Plant response rating, Crabgrass” value (crabgrass; [3]) was 3, the “Crabgrass plant response rating” value (crabgrass; [4]) was 0 and the “Crabgrass plant response rating” value (crabgrass; [5]) was 1. For the same compound, the “Crabgrass plant response rating” value (crabgrass; [6]) was 9, the “Rape plant response rating” value (rape; [7]) was 0 and the “Plant response rating, Rape” value (rape; [1]) was 0. For the same compound, the “Rape plant response rating” value (rape; [2]) was 0, the “Plant response rating, Rape” value (rape; [3]) was 2 and the “Rape plant response rating” value (rape; [4]) was 0. The “Rape plant response rating” value (rape; [5]) was 0, the “Rape plant response rating” value (rape; [6]) was 0 and the “B. signalgrass plant response rating” value (surinam grass; [7]) was 0. For the same compound, the “Plant response rating, B. signalgrass” value (surinam grass; [1]) was 0, the “B. signalgrass plant response rating” value (surinam grass; [2]) was 0 and the “Plant response rating, B. signalgrass” value (surinam grass; [3]) was 3. For the same compound, the “B. signalgrass plant response rating” value (surinam grass; [4]) was 0, the “B. signalgrass plant response rating” value (surinam grass; [5]) was 0 and the “B. signalgrass plant response rating (0 to 10 scale, 0 is no effect, 10 is complete control)” value (surinam grass; Preemergence, Rate 250 g/ha) was 0. For the same compound, the “B. signalgrass plant response rating” value (surinam grass; [6]) was 0, the “Morningglory plant response rating” value (morningglory; [7]) was 3 and the “Plant response rating, Morningglory” value (morningglory; [1]) was 3. The “Morningglory plant response rating” value (morningglory; [2]) was 5, the “Plant response rating, Morningglory” value (morningglory; [3]) was 6 and the “Morningglory plant response rating” value (morningglory; [4]) was 0. The “Morningglory plant response rating” value (morningglory; [5]) was 0, the “Morningglory plant response rating” value (morningglory; [6]) was 0 and the “Nutsedge plant response rating” value (purple nutsedge; [7]) was 0. For the same compound, the “Plant response rating, Nutsedge” value (purple nutsedge; [1]) was 0, the “Nutsedge plant response rating” value (purple nutsedge; [4]) was 0 and the “Nutsedge plant response rating” value (purple nutsedge; [5]) was 0. For the same compound, the “Nutsedge plant response rating” value (purple nutsedge; [6]) was 9, the “Plant response rating, Sugarbeets” value (sugar beet; [1]) was 0 and the “Sugarbeets plant response rating” value (sugar beet; [2]) was 0. The “Plant response rating, Sugarbeets” value (sugar beet; [3]) was 0, the “Sugarbeets plant response rating” value (sugar beet; [4]) was 0 and the “Sugarbeets plant response rating” value (sugar beet; [5]) was 0. For the same compound, the “Sugarbeets plant response rating” value (sugar beet; [6]) was 0, the “Plant response rating, Wild oats” value (wild oat; [1]) was 0 and the “Wild oats plant response rating” value (wild oat; [2]) was 0. The “Wild oats plant response rating” value (wild oat; [4]) was 0, the “Wild oats plant response rating” value (wild oat; [5]) was 0 and the “Wild oats plant response rating” value (wild oat; [6]) was 0. For the same compound, the “Plant response rating, Wheat” value (wheat; [1]) was 0, the “Wheat plant response rating” value (wheat; [2]) was 0 and the “Plant response rating, Wheat” value (wheat; [3]) was 0. The “Wheat plant response rating” value (wheat; [4]) was 0, the “Wheat plant response rating” value (wheat; [5]) was 0 and the “Wheat plant response rating” value (wheat; [6]) was 0. For the same compound, the “Plant response rating, Redroot pigweed” value (pigweed; [1]) was 0, the “Redroot pigweed plant response rating” value (pigweed; [2]) was 2 and the “Plant response rating, Redroot pigweed” value (pigweed; [3]) was 2. The “Redroot pigweed plant response rating” value (pigweed; [4]) was 0, the “Redroot pigweed plant response rating” value (pigweed; [5]) was 0 and the “Redroot pigweed plant response rating” value (pigweed; [6]) was 0. For the same compound, the “Plant response rating, Rice (0 to 10 scale, 0 is no effect, 10 is complete control)” value (rice; [8]) was 0, the “Rice plant response rating (0 to 10 scale, 0 is no effect, 10 is complete control)” value (rice; [9]) was 0 and the “Rice plant response rating” value (rice; [10]) was 0. For the same compound, the “Plant response rating, Ducksalad (0 to 10 scale, 0 is no effect, 10 is complete control)” value (duck salad; [8]) was 0, the “Ducksalad plant response rating (0 to 10 scale, 0 is no effect, 10 is complete control)” value (duck salad; [9]) was 0 and the “Ducksalad plant response rating” value (duck salad; [10]) was 0. For the same compound, the “Giant foxtail plant response rating” value (giant foxtail; [7]) was 0, the “Plant response rating, Giant foxtail” value (giant foxtail; [1]) was 0 and the “Giant foxtail plant response rating” value (giant foxtail; [2]) was 0. The “Plant response rating, Giant foxtail” value (giant foxtail; [3]) was 3, the “Giant foxtail plant response rating” value (giant foxtail; [4]) was 3 and the “Giant foxtail plant response rating” value (giant foxtail; [5]) was 9. The “Giant foxtail plant response rating” value (giant foxtail; [6]) was 10, the “Cocklebur plant response rating” value (cocklebur; [7]) was 0 and the “Plant response rating, Cocklebur” value (cocklebur; [1]) was 0. The “Cocklebur plant response rating” value (cocklebur; [2]) was 0, the “Plant response rating, Cocklebur” value (cocklebur; [3]) was 0 and the “Cocklebur plant response rating” value (cocklebur; [4]) was 0. The “Cocklebur plant response rating” value (cocklebur; [5]) was 0, the “Cocklebur plant response rating (0 to 10 scale)” value (cocklebur; Preemergence, Rate 250 g/ha) was 0 and the “Cocklebur plant response rating” value (cocklebur; [6]) was 0. For the same compound, the “Corn plant response rating” value (corn; [7]) was 0, the “Plant response rating, Corn” value (corn; [1]) was 0 and the “Corn plant response rating” value (corn; [2]) was 0. For the same compound, the “Plant response rating, Corn” value (corn; [3]) was 0, the “Corn plant response rating” value (corn; [4]) was 0 and the “Corn plant response rating” value (corn; [5]) was 0. For the same compound, the “Corn plant response rating (0 to 10 scale)” value (corn; Preemergence, Rate 250 g/ha) was 0, the “Corn plant response rating” value (corn; [6]) was 0 and the “Plant response rating, Barnyardgrass (0 to 10 scale, 0 is no effect, 10 is complete control)” value (bamyardgrass; [8]) was 0. For the same compound, the “Barnyardgrass plant response rating (0 to 10 scale, 0 is no effect, 10 is complete control)” value (bamyardgrass; [9]) was 0, the “Barnyardgrass plant response rating” value (bamyardgrass; [10]) was 0 and the “Blackgrass plant response rating” value (blackgrass; [7]) was 0. The “Plant response rating, Blackgrass” value (blackgrass; [1]) was 0, the “Blackgrass plant response rating” value (blackgrass; [2]) was 2 and the “Plant response rating, Blackgrass” value (blackgrass; [3]) was 3. The “Blackgrass plant response rating” value (blackgrass; [4]) was 0, the “Blackgrass plant response rating” value (blackgrass; [5]) was 0 and the “Blackgrass plant response rating (0 to 10 scale)” value (blackgrass; Preemergence, Rate 250 g/ha) was 0. For the same compound, the “Blackgrass plant response rating” value (blackgrass; [6]) was 0, the “Plant response rating, S. Flatsedge (0 to 10 scale, 0 is no effect, 10 is complete control)” value (smallflower flatsedge; [8]) was 0 and the “S. Flatsedge plant response rating (0 to 10 scale, 0 is no effect, 10 is complete control)” value (smallflower flatsedge; [9]) was 0. For the same compound, the “S. Flatsedge plant response rating” value (smallflower flatsedge; [10]) was 0, the “Plant response rating, Velvetleaf” value (velvetleaf; [1]) was 2 and the “Velvetleaf plant response rating” value (velvetleaf; [2]) was 5. For the same compound, the “Plant response rating, Velvetleaf” value (velvetleaf; [3]) was 5, the “Velvetleaf plant response rating” value (velvetleaf; [4]) was 0 and the “Velvetleaf plant response rating” value (velvetleaf; [5]) was 0. The “Velvetleaf plant response rating” value (velvetleaf; [6]) was 0.
